The text below walks through data of US11691962B2 (eXIthera Pharmaceuticals, Inc., priority 2018, dated 2023).

The term IC50 denotes the concentration that inhibits the measured activity by half.

This assay deals with Factor XIa (Homo sapiens (Human), UniProt P03951). Nature of the assay: Factor XIa enzyme inhibition assay (dose response, fluorogenic AMC substrate). Particulars: read-out: hFXIa IC50. In kind it is biochemical. The method, then: • Assay buffer: 20 mM Hepes, pH 7.4; 150 mM NaCl; 0.02% Tween 20 • Compounds: 10 mM stocks in DMSO • Substrate: 20 mM Glp-Pro-Arg-AMC, 25 mg/2.3 mL H2O (store at +4° C.) [Factor XIa, thrombin, and trypsin] • 20 mM Pro-Phe-Arg-AMC (Bachem I-1295), 25 mg/2.2 mL H2O • or Boc-Leu-Gly-Arg-AMC (Bachem I-1105), 25 mg/2.07 mL H2O • (store at +4° C.) [Factor Xa] • Enzyme: Factor XIa; 0.25 μM in 50% glycerol (20 μg/mL) • Trypsin; 0.2 μM in 50% glycerol (4.8 μg/mL) • Thrombin; 0.2 μM in 50% glycerol (7.34 μg/mL) • Factor Xa; 0.2 μM in 50% glycerol (9.2 μg/mL) • These stocks are aliquoted (˜100 μL/aliquot) and stored at −20° C. Methods: • 1. Dilute the substrate to 100 μM in assay buffer (30 μL/6 mL). The enzyme is diluted to 0.5 nM just prior to use (12 μL/6 mL for Factor XIa; 15 μL/6 mL for all of the rest.) • 2. Pipette 50 μL of substrate into each well of the 96 well (12×8) microtiter plate. (Column 1 is used as the 100% activity control and receives no compound, and Column 12 is the blank and receives no enzyme.) Add an additional 46 μL to column 2. • 3. Pipette 4 μL of each compound into the appropriate well in column 2 of the plate (unknowns assayed in triplicate, standard assayed in duplicate). The final compound concentration will be […] of the stock. • 4. Serially two-fold dilute the compound by mixing the sample in column 2, removing 50 μL to the next well (column 3), mix and remove to column 4, etc. until column 11. After mixing column 11, remove 50 μL and discard. • 5. Pipette 50 μL of buffer into column 12. Initiate the reaction by adding 50 μL of enzyme solution to each well of columns 1-11 as rapidly as possible. • 6. Read the plate in a spectrophotometer (SpectraMax) at 30° C., wherein each well is measured every 60 s for 30 min. For Factor Xa assays, each well is measured every 1 min for a total of 60 min. • 7. For Factor XIa assays, the compounds are assayed, in duplicate, at 3 different starting concentrations, 20, 2, and 0.2 μM; 1:10, 1:100, and 1:1000 dilution of 10 mM stock or at 2, 0.2, and 0.02 μM; 1:100, 1:1000, and 1:10,000 dilution of 10 mM stock. Data for each concentration are combined for graphing and data fitting. • 8. Data can be used both for estimation of IC50 and for estimation of Kon.
Chain of Factor XIa (P03951 388-625): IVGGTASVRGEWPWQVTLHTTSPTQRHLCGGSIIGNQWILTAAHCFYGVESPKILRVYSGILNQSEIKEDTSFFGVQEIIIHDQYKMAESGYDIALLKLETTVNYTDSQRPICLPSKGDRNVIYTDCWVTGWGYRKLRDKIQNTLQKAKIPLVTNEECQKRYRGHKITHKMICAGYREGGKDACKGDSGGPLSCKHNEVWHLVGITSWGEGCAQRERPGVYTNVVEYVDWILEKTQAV
Chain of Factor XIa (P03951 19-387 partner): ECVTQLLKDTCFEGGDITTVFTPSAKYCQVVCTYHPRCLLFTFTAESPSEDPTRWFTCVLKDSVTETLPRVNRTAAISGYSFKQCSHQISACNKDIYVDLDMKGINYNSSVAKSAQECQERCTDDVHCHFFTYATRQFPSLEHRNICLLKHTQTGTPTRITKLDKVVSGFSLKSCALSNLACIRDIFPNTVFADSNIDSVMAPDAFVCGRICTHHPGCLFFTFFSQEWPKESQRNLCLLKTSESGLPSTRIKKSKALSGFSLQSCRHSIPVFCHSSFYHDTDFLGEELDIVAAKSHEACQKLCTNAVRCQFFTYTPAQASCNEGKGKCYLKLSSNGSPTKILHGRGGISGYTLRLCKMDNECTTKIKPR
Potential inhibitors of Factor XIa were evaluated using the following assay.
PyroGlu-Pro-Arg-7-methylaminocourin (AMC), available from CPC Scientific, Inc., is based on the substrate pyro-Glu-Pro-Arg-pNA (S-2366), available from Diapharma Group, Inc. (Columbus, Ohio), wherein the p-nitroanaline group is replaced with 7-methylaminocoumarin (AMC).
The final concentration of the substrate in the assay was 50 μM, and the final concentration of the enzyme was 0.25 nM. Inhibitors were tested by serial dilution over an appropriate range to yield a dose response curve for determination of the inhibitors' IC50 value. The assay mixture was read every minute for 30 minutes in order to generate progress curves. The plates were read in a Spectramax m5 Multimode Plate Reader (Molecular Devices LLC, Sunnyvale, Calif.). Dose response curves were fit to Equation 1 below in which A is the maximum inhibition, B is the minimum inhibition, C is the IC50, and D is the Hill coefficient. Y=[(A−B)/(1+(X/C)^D)]+B (Equation 1)
Regarding `CN(C(=O)[C@@H]1[C@@H](Cc2ccnc(N)c2)C(=O)N1C(=O)NC(C1CCCCC1)C(F)(F)F)c1ccnn1C` (stereo in doubt) [Compound 1-6, (2S,3R)-3-((2-aminopyridin-4-yl)methyl)-N2-(1-methyl-1H-pyrazol-5-yl)-N1-((R)-1-cyclohexyl-2,2,2-trifluoroethyl)-N2-methyl-4-oxoazetidine-1,2-dicarboxamide], the IC50 lay in the range of 10 to 100 nM.
Then `Cc1cc(C[C@H]2C(=O)N(C(=O)NC(C3CCCCC3)C(F)(F)F)[C@@H]2C(=O)N(C)c2nccn2C)cc(N)n1` (stereo in doubt) [Compound 1-77, (2S,3R)-3-((2-amino-6-methylpyridin-4-yl)methyl)-N2-(1-methyl-1H-imidazol-2-yl)-N1-((R)-1-cyclohexyl-2,2,2-trifluoroethyl)-N2-methyl-4-oxoazetidine-1,2-dicarboxamide], with 10 to 100 nM.
Then `CC[C@@H](NC(=O)N1C(=O)[C@H](Cc2ccnc(N(C)C)c2)[C@H]1C(=O)N(C)c1cnn(C)c1)c1ccccc1` [Compound 1-5, (2S,3R)-3-((2-dimethylaminopyridin-4-yl)methyl)-N2-(1-methyl-1H-pyrazol-4-yl)-N1-((R)-1-phenylpropyl)-N2-methyl-4-oxoazetidine-1,2-dicarboxamide], with more than 1000 nM; and `CC[C@H](c1cccc(Cl)c1)N(C)C(=O)N1C(=O)[C@H](Cc2ccnc(N)c2)[C@H]1C(=O)N(C)c1ccn(C)n1` [Compound 1-7, (2S,3R)-3-((2-aminopyridin-4-yl)methyl)-N2-(1-methyl-1H-pyrazol-3-yl)-N1-((R)-1-(3-chlorophenyl)propyl)-N1-methyl-N2-methyl-4-oxoazetidine-1,2-dicarboxamide], with 10 to 100 nM; and `CC[C@@H](NC(=O)N1C(=O)[C@H](Cc2ccnc(N)c2)[C@H]1C(=O)N(C)c1ccn(C)n1)c1cccc(C)c1` [Compound 1-14, (2S,3R)-3-((2-aminopyridin-4-yl)methyl)-N2-(1-methyl-1H-pyrazol-3-yl)-N1-((R)-1-(3-methylphenyl)propyl)-N2-methyl-4-oxoazetidine-1,2-dicarboxamide], with 10 to 100 nM.
As to `CC[C@@H](NC(=O)N1C(=O)[C@H](Cc2ccnc(N)c2)[C@H]1C(=O)N(C)c1ccn(C)n1)c1ccc(C)nc1` [Compound 1-20, (2S,3R)-3-((2-aminopyridin-4-yl)methyl)-N2-(1-methyl-1H-pyrazol-3-yl)-N1-((R)-1-(6-methylpyridin-3-yl)propyl)-N2-methyl-4-oxoazetidine-1,2-dicarboxamide], the IC50 was less than 10 nM.
On to `CC[C@@H](NC(=O)N1C(=O)[C@H](Cc2ccnc(N)c2)[C@H]1C(=O)N(C)c1ccsn1)c1ccccc1` [Compound 1-21, (2S,3R)-3-((2-aminopyridin-4-yl)methyl)-N2-(3-isothiazolyl)-N1-((R)-1-phenylpropyl)-N2-methyl-4-oxoazetidine-1,2-dicarboxamide], for which the IC50 was in the range of 10 to 100 nM.
As to `CC[C@@H](NC(=O)N1C(=O)[C@H](Cc2ccnc(NC(=O)OC(C)(C)C)c2)[C@H]1C(=O)N(C)c1cnn(C)c1)c1cccc(Cl)c1` [Compound 1-23, (2S,3R)-3-((2-(((tert-butoxy)carbonyl)amino)pyridin-4-yl)methyl)-N2-(1-methyl-1H-pyrazol-4-yl)-N1-((R)-1-(3-chlorophenyl)propyl)-N2-methyl-4-oxoazetidine-1,2-dicarboxamide], the IC50 is more than 1000 nM.
For the compound `CC[C@@H](NC(=O)N1C(=O)[C@H](Cc2ccnc(N)c2)[C@H]1C(=O)N(C)c1cscn1)c1cccc(C)c1` [Compound 1-24, (2S,3R)-3-((2-aminopyridin-4-yl)methyl)-N2-(4-thiazolyl)-N1-((R)-1-(3-methylphenyl)propyl)-N2-methyl-4-oxoazetidine-1,2-dicarboxamide], the IC50 is less than 10 nM.
The same measure for `CN(C(=O)[C@@H]1[C@@H](Cc2ccnc(N)c2)C(=O)N1C(=O)NCc1cccc(Cl)c1)c1cnn(C)c1` [Compound 1-27, (2S,3R)-3-((2-aminopyridin-4-yl)methyl)-N2-(1-methyl-1H-pyrazol-4-yl)-N1-((3-chlorophenyl)methyl)-N2-methyl-4-oxoazetidine-1,2-dicarboxamide]: 10 to 100 nM.
As to `CN(C(=O)[C@@H]1[C@@H](Cc2ccnc(N)c2)C(=O)N1C(=O)NCc1cccc(Cl)c1)c1cccs1` [Compound 1-29, (2S,3R)-3-((2-aminopyridin-4-yl)methyl)-N2-(thiophen-2-yl)-N1-((3-chlorophenyl)methyl)-N2-methyl-4-oxoazetidine-1,2-dicarboxamide], the IC50 is 10 to 100 nM.
Then `CN(C(=O)[C@@H]1[C@@H](Cc2ccnc(N)c2)C(=O)N1C(=O)N[C@@H](C1CC1)C(F)(F)F)c1ccn(C)n1` [Compound 1-30, (2S,3R)-3-((2-aminopyridin-4-yl)methyl)-N2-(1-methyl-1H-pyrazol-3-yl)-N1-((S)-1-cyclopropyl-2,2,2-trifluoroethyl)-N2-methyl-4-oxoazetidine-1,2-dicarboxamide], with 10 to 100 nM; and `CN(C(=O)[C@@H]1[C@@H](Cc2ccnc(N)c2)C(=O)N1C(=O)NCc1cccc(F)c1)c1cn(C)cn1` [Compound 1-34, (2S,3R)-3-((2-aminopyridin-4-yl)methyl)-N2-(1-methyl-1H-imidazol-4-yl)-N1-((3-fluorophenyl)methyl)-N2-methyl-4-oxoazetidine-1,2-dicarboxamide], with 100 to 1000 nM; and `CC[C@@H](NC(=O)N1C(=O)[C@H](Cc2ccnc(NC)c2)[C@H]1C(=O)N(C)c1ccnn1C)c1cccc(Cl)c1` [Compound 1-36, (2S,3R)-3-((2-methylaminopyridin-4-yl)methyl)-N2-(1-methyl-1H-pyrazol-5-yl)-N1-((R)-1-(3-chlorophenyl)propyl)-N2-methyl-4-oxoazetidine-1,2-dicarboxamide], with 10 to 100 nM.
Then `CCNc1cc(C[C@H]2C(=O)N(C(=O)N[C@H](CC)c3cccc(Cl)c3)[C@@H]2C(=O)N(C)c2ccn(C)n2)ccn1` [Compound 1-39, (2S,3R)-3-((2-ethylaminopyridin-4-yl)methyl)-N2-(1-methyl-1H-pyrazol-3-yl)-N1-((R)-1-(3-chlorophenyl)propyl)-N2-methyl-4-oxoazetidine-1,2-dicarboxamide], with 10 to 100 nM; and `CC[C@@H](NC(=O)N1C(=O)[C@H](Cc2ccnc(NC)c2)[C@H]1C(=O)N(C)c1cccs1)c1ccccc1` [Compound 1-40, (2S,3R)-3-((2-methylaminopyridin-4-yl)methyl)-N2-(thiophen-2-yl)-N1-((R)-1-phenylpropyl)-N2-methyl-4-oxoazetidine-1,2-dicarboxamide], with 10 to 100 nM; and `CC[C@@H](NC(=O)N1C(=O)[C@H](Cc2ccnc(N)c2)[C@H]1C(=O)N(C)c1ccn(C)n1)c1ccn(C)n1` [Compound 1-42, (2S,3R)-3-((2-aminopyridin-4-yl)methyl)-N2-(1-methyl-1H-pyrazol-3-yl)-N1-((R)-1-(1-methyl-1H-pyrazol-3-yl)propyl)-N2-methyl-4-oxoazetidine-1,2-dicarboxamide], with 100 to 1000 nM.
In the case of `CC[C@@H](NC(=O)N1C(=O)[C@H](Cc2ccnc(N)c2)[C@H]1C(=O)N(C)c1cccs1)c1ccn(C)n1` [Compound 1-49, (2S,3R)-3-((2-aminopyridin-4-yl)methyl)-N2-(thiophen-2-yl)-N1-((R)-1-(1-methyl-1H-pyrazol-3-yl)propyl)-N2-methyl-4-oxoazetidine-1,2-dicarboxamide], the IC50 was 10 to 100 nM.
